Measured values taken from ChEMBL document CHEMBL4265946, “Activity of oxygen-versus sulfur-containing analogs of the Flex-Het anticancer agent SHetA2” (Eur J Med Chem, 2018).

Tests used:
A2780 [1] = test: Growth inhibition of human A2780 cells after 72 hrs by CellTiter-96 assay; type: functional, cell-based; settings: A2780, 72 h
A2780 [2] = test: Growth inhibition of human A2780 cells at 10 uM after 72 hrs by CellTiter-96 assay relative to control; type: functional; settings: A2780, 72 h, read-out: GI
[3] = Toxicity in rat; type: organism-based; settings: in vivo
[4] = Toxicity in dog; type: organism-based, Canis lupus familiaris; settings: in vivo

| SMILES | IC50 (A2780 [1]) | inhibition of growth at 10 µM (A2780 [2]) | NOAEL [3] | NOAEL [4] |
| --- | --- | --- | --- | --- |
| CC1(C)CC(C)(C)c2cc(N/C(S)=N/c3ccc([N+](=O)[O-])cc3)ccc2O1 | 6.96 µM | 87% | – | – |
| CC1(C)CCOc2ccc(NC(=S)Nc3ccc([N+](=O)[O-])cc3)cc21 | 6.4 µM | 19% | – | – |
| CCC1(CC)CC(CC)(CC)c2cc(NC(=O)Nc3ccc(C(F)(F)F)cc3)ccc2O1 | 2 µM | 86.2% | – | – |
| CC1(C)CCOc2ccc(NC(=O)Nc3ccc([N+](=O)[O-])cc3)cc21 | 6.7 µM | 74% | – | – |
| CC1(C)CC(C)(C)c2cc(NC(=S)Nc3ccc(S(N)(=O)=O)cc3)ccc2O1 | 6.9 µM | 32% | – | – |
| CCC1(CC)CC(CC)(CC)c2cc(NC(=S)Nc3ccc([N+](=O)[O-])cc3)ccc2O1 | 4.6 µM | 94% | – | – |
| CC1(C)CCOc2ccc(NC(=S)Nc3ccc(C(F)(F)F)cc3)cc21 | 5.5 µM | 28% | – | – |
| CC1(C)CCOc2ccc(NC(=O)Nc3ccc(OC(F)(F)F)cc3)cc21 | 3.5 µM | 36% | – | – |
| CCC1(CC)CC(C)(C)c2cc(NC(=O)Nc3ccc(C(F)(F)F)cc3)ccc2O1 | 2.45 µM | 92.4% | – | – |
| CCC1(CC)CC(C)(C)Oc2ccc(NC(=O)Nc3ccc([N+](=O)[O-])cc3)cc21 | 2.05 µM | 93.7% | – | – |
| CC1(C)CC(C)(C)c2cc(NC(=O)Nc3ccc(C(F)(F)F)cc3)ccc2O1 | 3.6 µM | 88.4% | – | – |
| CC1(C)CC(C)(C)c2cc(NC(=S)Nc3ccc(C(F)(F)F)cc3)ccc2O1 | 43.7 µM | 2% | – | – |
| CCC1(CC)CC(CC)(CC)c2cc(NC(=O)Nc3ccc(OC(F)(F)F)cc3)ccc2O1 | 3 µM | 67% | – | – |
| CCC1(CC)CC(C)(C)Oc2ccc(NC(=S)Nc3ccc(C(F)(F)F)cc3)cc21 | 4.7 µM | 11.8% | – | – |
| CC1(C)CC(C)(C)c2cc(NC(=O)Nc3ccc(OC(F)(F)F)cc3)ccc2O1 | 4.56 µM | 91.5% | – | – |
| CC1(C)CC(C)(C)c2cc(NC(=O)Nc3ccc([N+](=O)[O-])cc3)ccc2O1 | 4.1 µM | 79% | – | – |
| CCC1(CC)CC(CC)(CC)c2cc(NC(=O)Nc3ccc([N+](=O)[O-])cc3)ccc2O1 | 2.09 µM | 91.4% | – | – |
| CC1(C)CCOc2ccc(NC(=O)Nc3ccc(C(F)(F)F)cc3)cc21 | 5 µM | 47% | – | – |
| CC1(C)CCOc2ccc(NC(=S)Nc3ccc(OC(F)(F)F)cc3)cc21 | 4.3 µM | 16% | – | – |
| CCC1(CC)CC(C)(C)c2cc(NC(=O)Nc3ccc([N+](=O)[O-])cc3)ccc2O1 | 2.17 µM | 93.2% | – | – |
| CC1(C)CC(C)(C)c2cc(NC(=O)Nc3ccc(C#N)cc3)ccc2O1 | 4.7 µM | 93% | – | – |
| CCC1(CC)CC(C)(C)c2cc(NC(=S)Nc3ccc([N+](=O)[O-])cc3)ccc2O1 | 2.9 µM | 93.9% | – | – |
| CCC1(CC)CC(C)(C)Oc2ccc(NC(=S)Nc3ccc([N+](=O)[O-])cc3)cc21 | 3.69 µM | 95.7% | – | – |
| CCC1(CC)CC(C)(C)Oc2ccc(NC(=O)Nc3ccc(C(F)(F)F)cc3)cc21 | 2.43 µM | 93.3% | – | – |
| CCOC(=O)c1ccc(N/C(S)=N/c2ccc3c(c2)C(C)(C)CC(C)(C)O3)cc1 | 4.3 µM | 26% | – | – |
| CC1(C)CC(C)(C)c2cc(NC(=S)Nc3ccc([N+](=O)[O-])cc3)ccc2S1 [SHETA-2] | 3.17 µM | 84.3% | 500 mg/kg/day | > 1500 mg/kg/day |
